Results published in patent US11033604B2, “Reagents and methods for treating bacterial infection” (priority 2018, dated 2021).
Non-standard residues stand in square brackets, D forms with d. No end group written: not given here.

Assays:
GERB 319 = experiment: ThT assay of EM amyloid in clinical isolate biofilms; assay type: cell-based, E. coli; settings: antibiotic resistant clinical isolate GERB 319
Text: (§1) FIG. 12. Synthetic α-sheet peptides inhibit amyloid formation in uropathogenic E. coli biofilms. […] E) AP193 is also effective in reducing the EM amyloid content of two clinical isolate strains, GERB 319 and GERB 337. Error bars indicate standard deviation of the mean of at least three replicates. Significance values are p<0.05: *, p<0.01: **, p<0.001: ***.
(§2) To extend the applicability of synthetic α-sheet peptides beyond the well-characterized UTI89 system, we obtained several E. coli isolates from pediatric patients who presented with urinary tract infections.

GERB 337 = experiment: as above; assay type: cell-based, E. coli; settings: antibiotic resistant clinical isolate GERB 337
Text: as §1, §2

[1] = tested on: E. coli UTI89 WT biofilms; experiment: Antibiotic susceptibility test with gentamicin (live/dead ratio and CFU counts); assay type: cell-based; settings: 150 μg/mL gentamicin, 6 h, vs peptide-free controls
Experimental: FIG. 13. Synthetic α-sheet peptides increase antibiotic susceptibility of uropathogenic E. coli biofilms, as measured by A) live/dead fluorescence ratio and (B) CFU counts. Error bars indicate standard deviation of the mean of at least three replicates.
To test this hypothesis, biofilms of E. coli UTI89 WT were grown in YESCA broth+4% DMSO in 48 well plates at 26° C. Media was removed 6 h prior to the end of the 48 h incubation period and replaced either with fresh media alone or fresh media containing 150 μg/mL gentamicin (Gm), an aminoglycoside antibiotic. After the 6 h incubation, biofilms were harvested by aspirating the planktonic cells, rinsing the biofilm once with PBS, and then resuspending the biofilm in PBS. Biofilm suspensions were homogenized with a probe sonicator and subjected to one of two processing protocols. In the first assay, the bacterial density of each biofilm suspension was normalized by absorbance at 670 nm and then bacteria were stained with Live/Dead (Syto9/propidum iodide) to obtain a fluorescent readout of viability. In the second assay, biofilm suspensions were serially diluted in sterile PBS and then plated on agar plates to obtain colony-forming unit (CFU) counts.

With “RGEmNyFwMNEYYGWtMnCkMGR (RGE[dM]N[dY]F[dW]MNEYYGW[dT]M[dN]C[dK]MGR) [AP193, hydrophobic AP90 derivative, variant to support different chemical coupling reactions]” the “ThT fluorescence of biofilm” value (GERB 319) was “significant decrease in ThT fluorescence”, the “ThT fluorescence of biofilm” value (GERB 337) was “significant decrease in ThT fluorescence” and the “Efficacy of gentamicin (Gm) against biofilms (live/dead ratio, CFU counts)” value [1] was “improved the efficacy of Gm”.
